What all share (type): cell-based
Assay [1] relates to EGFR Del19/T790M/C797S (BaF3-DTC cells). As to the kind of experiment: EGFR degradation HTRF assay, BaF3-DTC cells. To be noted: 16h treatment; for DTC Dmax (%): maximum percentage of degradation; for DC50: read-out: DTC DC50. The method, boiled down: (§1)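 EGFR remaining after a 16 h, 37 °C exposure (8 doses, 5-fold steps from 10 uM final, 0.2% DMSO) was quantified by HTRF antibodies in cell lysate. Percent inhibition relative to DMSO control was fitted by four-parameter logistic to give DC50; Dmax denotes maximal degradation.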
On the technique in general: Time-resolved FRET reads energy transfer from a long-lived donor to a nearby acceptor.

Assay [2] has as its target T1, EGFR L858R/T790M/C797S (BaF3-LTC cells) (Homo sapiens, UniProt P00533, C797S/L858R/T790M).
T1 construct: expressed in transfected cells; host or cells: BaF3
Description: EGFR degradation HTRF assay, BaF3-LTC cells. To be noted: BaF3-LTC, 16h treatment; for Dmax: maximum percentage of degradation, read-out: LTC Dmax (%); for DC50: read-out: LTC DC50. Put shortly: as §1

Assay [3] addresses T2, EGFR L858R/T790M (H1975-clone #36, homozygous) (Homo sapiens, UniProt P00533, L858R/T790M).
T2 construct: designed to specifically target WT EGFR but preserve the L858R/T790M copy; host or cells: H1975-clone #36
As to the kind of experiment: EGFR degradation HTRF assay, H1975-clone #36 cells. To be noted: H1975 #36, 16h treatment; for Dmax: NCI-H1975, maximum percentage of degradation. The method, boiled down: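 Eight-point, 5-fold series starting at 10 uM (0.2% DMSO) applied for 16 h, 37 °C, to a WT-EGFR-knockout H1975 clone carrying only L858R/T790M. Lysates read by HTRF overnight. Degradation percentage relative to DMSO control fitted for DC50, with Dmax as maximum degradation.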

Assay [4] concerns the target T3, EGFR (HCC827 cells) (Homo sapiens, UniProt P00533, DEL746-750).
T3 construct: endogenous in cells; host or cells: HCC827
Description: EGFR degradation HTRF assay, HCC827 cells. To be noted: HCC827, 16h treatment; for Dmax: maximum percentage of degradation. The method, boiled down:
as §1

Where a name gives a salt, the structure may show the parent alone.

Experimental findings from patent US20230265116A1, “DEGRADATION OF (EGFR) BY CONJUGATION OF EGFR INHIBITORS WITH E3 LIGASE LIGAND AND METHODS OF USE” (BEIGENE, LTD., priority 2020, published 2023) are described below.

T2 sequence (P00533 25-1210 T790M/L858R): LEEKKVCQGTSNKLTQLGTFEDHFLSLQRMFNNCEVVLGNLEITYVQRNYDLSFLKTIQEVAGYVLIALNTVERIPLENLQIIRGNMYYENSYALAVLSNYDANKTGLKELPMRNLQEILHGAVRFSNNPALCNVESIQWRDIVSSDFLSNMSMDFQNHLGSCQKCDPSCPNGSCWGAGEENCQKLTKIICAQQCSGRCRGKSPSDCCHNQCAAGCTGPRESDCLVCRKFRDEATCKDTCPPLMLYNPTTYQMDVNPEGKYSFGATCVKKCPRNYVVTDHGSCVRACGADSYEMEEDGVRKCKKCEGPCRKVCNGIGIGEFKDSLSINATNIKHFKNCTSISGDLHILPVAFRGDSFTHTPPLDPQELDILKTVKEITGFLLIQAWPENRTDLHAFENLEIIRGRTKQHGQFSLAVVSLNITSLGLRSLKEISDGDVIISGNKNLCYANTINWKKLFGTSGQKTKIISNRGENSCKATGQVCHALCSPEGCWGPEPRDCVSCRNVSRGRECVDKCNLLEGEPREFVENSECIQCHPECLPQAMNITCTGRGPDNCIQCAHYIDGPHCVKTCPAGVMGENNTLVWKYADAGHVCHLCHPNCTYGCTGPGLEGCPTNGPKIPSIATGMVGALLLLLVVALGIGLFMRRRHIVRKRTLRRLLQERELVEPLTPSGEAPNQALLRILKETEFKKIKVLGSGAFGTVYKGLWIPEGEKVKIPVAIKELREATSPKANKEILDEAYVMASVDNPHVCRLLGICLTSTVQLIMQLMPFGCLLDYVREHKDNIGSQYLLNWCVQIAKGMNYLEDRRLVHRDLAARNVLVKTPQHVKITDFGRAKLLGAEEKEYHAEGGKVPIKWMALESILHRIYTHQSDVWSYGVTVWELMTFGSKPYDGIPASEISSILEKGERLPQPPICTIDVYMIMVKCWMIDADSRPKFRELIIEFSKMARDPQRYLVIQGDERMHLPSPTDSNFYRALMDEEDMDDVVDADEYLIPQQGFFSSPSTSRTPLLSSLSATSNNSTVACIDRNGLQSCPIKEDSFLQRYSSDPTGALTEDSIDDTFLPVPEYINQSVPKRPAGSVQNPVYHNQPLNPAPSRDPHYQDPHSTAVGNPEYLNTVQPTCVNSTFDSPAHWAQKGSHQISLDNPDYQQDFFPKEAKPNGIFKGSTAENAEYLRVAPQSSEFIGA
T3 sequence (P00533 with tags, fused parts or gaps DEL746-750): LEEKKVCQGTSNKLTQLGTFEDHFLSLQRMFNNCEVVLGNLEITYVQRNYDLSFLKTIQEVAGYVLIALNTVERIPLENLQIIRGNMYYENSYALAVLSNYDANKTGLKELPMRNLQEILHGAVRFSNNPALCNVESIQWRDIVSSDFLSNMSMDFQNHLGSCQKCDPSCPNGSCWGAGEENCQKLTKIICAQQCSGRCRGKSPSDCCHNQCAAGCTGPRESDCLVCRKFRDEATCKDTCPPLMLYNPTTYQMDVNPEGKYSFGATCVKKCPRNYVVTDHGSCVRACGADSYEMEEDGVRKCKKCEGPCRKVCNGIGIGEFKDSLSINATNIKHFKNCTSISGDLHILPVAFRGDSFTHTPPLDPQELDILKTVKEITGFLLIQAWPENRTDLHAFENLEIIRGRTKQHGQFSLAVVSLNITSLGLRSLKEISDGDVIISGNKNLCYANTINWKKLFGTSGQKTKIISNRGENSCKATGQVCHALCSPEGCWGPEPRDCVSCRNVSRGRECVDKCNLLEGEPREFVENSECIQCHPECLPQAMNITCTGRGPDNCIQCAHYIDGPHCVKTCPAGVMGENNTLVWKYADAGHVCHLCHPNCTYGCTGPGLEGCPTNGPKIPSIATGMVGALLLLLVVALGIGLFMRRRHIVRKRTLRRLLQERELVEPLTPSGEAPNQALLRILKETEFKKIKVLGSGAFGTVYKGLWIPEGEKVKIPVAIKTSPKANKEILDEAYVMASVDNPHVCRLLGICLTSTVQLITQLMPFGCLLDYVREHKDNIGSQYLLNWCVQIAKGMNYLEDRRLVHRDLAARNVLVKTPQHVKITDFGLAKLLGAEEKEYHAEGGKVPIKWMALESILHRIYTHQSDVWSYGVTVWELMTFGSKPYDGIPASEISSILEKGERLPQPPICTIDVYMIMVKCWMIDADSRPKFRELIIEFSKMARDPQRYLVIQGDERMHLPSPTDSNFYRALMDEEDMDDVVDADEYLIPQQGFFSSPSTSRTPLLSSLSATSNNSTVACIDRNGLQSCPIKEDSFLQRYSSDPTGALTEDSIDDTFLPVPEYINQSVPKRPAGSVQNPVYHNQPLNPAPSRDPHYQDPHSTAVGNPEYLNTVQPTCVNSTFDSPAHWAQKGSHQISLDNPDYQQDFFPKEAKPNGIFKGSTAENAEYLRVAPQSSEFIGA
T1 sequence (P00533 25-1210 T790M/C797S/L858R): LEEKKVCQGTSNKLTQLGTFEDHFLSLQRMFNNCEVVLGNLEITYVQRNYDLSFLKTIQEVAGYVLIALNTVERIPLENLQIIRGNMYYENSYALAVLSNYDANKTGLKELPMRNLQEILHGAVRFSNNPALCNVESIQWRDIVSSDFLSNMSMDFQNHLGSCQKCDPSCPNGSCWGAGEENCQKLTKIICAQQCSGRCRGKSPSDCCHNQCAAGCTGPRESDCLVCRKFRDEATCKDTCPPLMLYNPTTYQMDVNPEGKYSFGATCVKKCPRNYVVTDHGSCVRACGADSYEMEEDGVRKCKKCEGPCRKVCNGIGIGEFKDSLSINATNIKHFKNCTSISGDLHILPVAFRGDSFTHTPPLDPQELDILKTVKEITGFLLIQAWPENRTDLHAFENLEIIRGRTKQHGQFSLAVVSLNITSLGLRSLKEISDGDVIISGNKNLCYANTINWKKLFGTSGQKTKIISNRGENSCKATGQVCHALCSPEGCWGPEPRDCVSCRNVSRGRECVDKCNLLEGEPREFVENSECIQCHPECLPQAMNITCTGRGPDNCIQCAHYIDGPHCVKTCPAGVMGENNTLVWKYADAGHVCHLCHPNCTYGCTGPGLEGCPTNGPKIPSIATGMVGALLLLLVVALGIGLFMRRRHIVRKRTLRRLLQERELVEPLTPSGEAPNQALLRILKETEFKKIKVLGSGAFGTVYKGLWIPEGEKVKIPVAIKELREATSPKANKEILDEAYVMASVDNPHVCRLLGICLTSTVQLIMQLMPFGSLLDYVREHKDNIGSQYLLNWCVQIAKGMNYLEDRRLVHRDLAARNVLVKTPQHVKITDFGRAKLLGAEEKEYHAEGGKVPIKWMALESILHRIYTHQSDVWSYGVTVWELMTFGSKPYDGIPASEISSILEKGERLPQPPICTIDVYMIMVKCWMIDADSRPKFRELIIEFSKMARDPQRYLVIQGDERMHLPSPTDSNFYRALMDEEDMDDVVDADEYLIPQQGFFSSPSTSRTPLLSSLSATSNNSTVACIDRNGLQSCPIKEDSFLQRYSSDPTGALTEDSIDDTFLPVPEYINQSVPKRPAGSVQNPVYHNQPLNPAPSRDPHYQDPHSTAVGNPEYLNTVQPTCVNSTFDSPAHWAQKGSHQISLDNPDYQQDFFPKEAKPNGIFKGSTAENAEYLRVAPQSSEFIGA

On to `CCc1cc(Nc2ncc(Br)c(Nc3ccc4nccnc4c3P(C)(C)=O)n2)c(OC)cc1N1CCC(N2CCN(CCc3ccc(C4CCC(=O)NC4=O)c(F)c3F)CC2)CC1` (stereo not shown) [Example 10, 3-(4-(2-(4-(1-(4-((5-bromo-4-((5-(dimethylphosphoryl)quinoxalin-6-yl)amino)pyrimidin-2-yl)amino)-2-ethyl-5-methoxyphenyl)piperidin-4-yl)piperazin-1-yl)ethyl)-2,3-difluorophenyl)piperidine-2,6-dione], for which the “DTC Dmax (%)” value in assay [1] turned out to be 85.51%. The DC50 in assay [1] was 0.0155 µM; in assay [2], 0.0833 µM; in assay [3] it was 0.0159 µM; in assay [4], 0.0123 µM. Moreover, the values for the Dmax in assay [2], in assay [3] and in assay [4] were 88.7%, 82.6% and 83.3%, respectively.

As for `CCc1cc(Nc2ncc(Br)c(Nc3ccc4nccnc4c3P(C)(C)=O)n2)c(OC)cc1N1CCC(N2CCN(CCc3cc(F)c(C4CCC(=O)NC4=O)c(F)c3)CC2)CC1` (stereo not shown) [Example 11, 3-(4-(2-(4-(1-(4-((5-bromo-4-((5-(dimethylphosphoryl)quinoxalin-6-yl)amino)pyrimidin-2-yl)amino)-2-ethyl-5-methoxyphenyl)piperidin-4-yl)piperazin-1-yl)ethyl)-2,6-difluorophenyl)piperidine-2,6-dione], the greatest degradation seen (Dmax) in assay [2] was 91.9%; in assay [3] it was 97.4%; in assay [4] it was 86.4%. For the same molecule, the DC50 in assay [3] is 0.00541 µM; in assay [4], 0.00284 µM.

In the case of `CCc1cc(Nc2ncc(Br)c(Nc3ccc4nccnc4c3P(C)(C)=O)n2)c(OC)cc1N1CCC(N2CCN(C(=O)C3CN(c4ccc5c(c4)C(=O)N(C4CCC(=O)NC4=O)C5=O)C3)CC2)CC1` (stereo not shown) [Example 64, 5-(3-(4-(1-(4-((5-bromo-4-((5-(dimethylphosphoryl)quinoxalin-6-yl)amino)pyrimidin-2-yl)amino)-2-ethyl-5-methoxyphenyl)piperidin-4-yl)piperazine-1-carbonyl)azetidin-1-yl)-2-(2,6-dioxopiperidin-3-yl)isoindoline-1,3-dione], in assay [1], the “DTC Dmax (%)” value stood at 90.07%. Besides, the DC50 in assay [1] is 0.00485 µM; in assay [2], 0.00172 µM; in assay [3] it was 0.00312 µM; in assay [4], 0.00206 µM. Moreover, the results for the Dmax in assay [2], in assay [3] and in assay [4] were 85.4%, 85.8% and 75.7%, respectively.

As for `COc1cc(N2CCC(N3CCN(CCCC4CN(c5ccc6c(c5)C(=O)N(C5CCC(=O)NC5=O)C6=O)C4)CC3)CC2)ccc1Nc1ncc(Cl)c(Nc2ccccc2P(C)(C)=O)n1` (stereo not shown) [Example 118, 5-(3-(3-(4-(1-(4-((5-chloro-4-((2-(dimethylphosphoryl)phenyl)amino)pyrimidin-2-yl)amino)-3-methoxyphenyl)piperidin-4-yl)piperazin-1-yl)propyl)azetidin-1-yl)-2-(2,6-dioxopiperidin-3-yl)isoindoline-1,3-dione], the 50% degradation concentration (DC50) was 0.0247 µM in assay [3] and 0.0227 µM in assay [4]. In addition, the Dmax in assay [3] is 82.4%; in assay [4] it was 76%.

For `COc1cc(N2CCC(N3CCN(CCc4ccc(C5CCC(=O)NC5=O)cc4)CC3)CC2)ccc1Nc1ncc(Cl)c(Nc2ccccc2N(C)S(C)(=O)=O)n1` (stereo not shown) [Example 119, N-(2-((5-chloro-2-((4-(4-(4-(4-(2,6-dioxopiperidin-3-yl)phenethyl)piperazin-1-yl)piperidin-1-yl)-2-methoxyphenyl)amino)pyrimidin-4-yl)amino)phenyl)-N-methylmethane sulfonamide], the DC50 in assay [3] was 0.00902 µM; in assay [4], 0.0129 µM. Besides, the Dmax in assay [3] worked out at 83.9%; in assay [4] it was 85.3%.

In assay [3], `COc1cc(N2CCN(C3CCN(CCc4ccc(C5CCC(=O)NC5=O)cc4)CC3)CC2)ccc1Nc1ncc(Cl)c(Nc2ccccc2N(C)S(C)(=O)=O)n1` (stereo not shown) [Example 120, N-(2-((5-chloro-2-((4-(4-(1-(4-(2,6-dioxopiperidin-3-yl)phenethyl)piperidin-4-yl)piperazin-1-yl)-2-methoxyphenyl)amino)pyrimidin-4-yl)amino)phenyl)-N-methylmethanesulfonamide hydrochloride] had a DC50 of 0.00522 µM and a Dmax of 91.6%. In assay [4], this molecule had a DC50 of 0.0142 µM and a Dmax of 86.4%.

Consider `COc1cc(N2CCC(N3CCN(CCC4CCN(c5ccc(N6CCC(=O)NC6=O)c(F)c5)CC4)CC3)CC2)ccc1Nc1ncc(Cl)c(Nc2ccccc2N(C)S(C)(=O)=O)n1` [Example 125, N-(2-((5-chloro-2-((4-(4-(4-(2-(1-(4-(2,4-dioxotetrahydropyrimidin-1(2H)-yl)-3-fluorophenyl)piperidin-4-yl)ethyl)piperazin-1-yl)piperidin-1-yl)-2-methoxyphenyl)amino)pyrimidin-4-yl)amino)phenyl)-N-methylmethanesulfonamide], for which, in assay [3], the DC50 was > 10 µM and the Dmax amounted to 27.2%. In assay [4], this molecule returned a DC50 of 0.103 µM and a Dmax of 73.5%.

In assay [3], `COc1cc(N2CCC(N3CCN(CCc4ccc(NC5CCC(=O)NC5=O)cc4)CC3)CC2)ccc1Nc1ncc(Cl)c(Nc2ccccc2N(C)S(C)(=O)=O)n1` (stereo not shown) [Example 126, N-(2-((5-chloro-2-((4-(4-(4-(4-((2,6-dioxopiperidin-3-yl)amino)phenethyl)piperazin-1-yl)piperidin-1-yl)-2-methoxyphenyl)amino)pyrimidin-4-yl)amino)phenyl)-N-methylmethanesulfonamide] displayed a DC50 of 0.00261 µM and a Dmax of 83.9%. Further, in assay [4], it took 0.0191 µM to reach half-maximal degradation (DC50) and the Dmax was 84%.

In assay [3], `COc1cc(N2CCC(N3CCN(CCCOc4ccc(OC5CCC(=O)NC5=O)cc4)CC3)CC2)ccc1Nc1ncc(Cl)c(Nc2ccccc2N(C)S(C)(=O)=O)n1` (stereo not shown) [Example 127, N-(2-((5-chloro-2-((4-(4-(4-(3-(4-((2,6-dioxopiperidin-3 yl)oxy)phenoxy)propyl)piperazin-1-yl)piperidin-1-yl)-2-methoxyphenyl)amino)pyrimidin-4-yl)amino)phenyl)-N-methylmethanesulfonamide] yielded a 50% degradation concentration (DC50) of 0.0119 µM and a Dmax of 64.7%. In assay [4], this molecule came in with a DC50 of 0.0359 µM and a maximal degradation (Dmax) of 71.4%.

`COc1cc(N2CCC(N3CCN(C(=O)C4CCN(CC5CCN(c6ccc7c(c6)C(=O)N(C6CCC(=O)NC6=O)C7=O)CC5)CC4)CC3)CC2)ccc1Nc1ncc(Cl)c(Nc2ccccc2N(C)S(C)(=O)=O)n1` (stereo not shown) [Example 129, N-(2-((5-chloro-2-((4-(4-(4-(1-((1-(2-(2,6-dioxopiperidin-3-yl)-1,3-dioxoisoindolin-5-yl)piperidin-4-yl)methyl)piperidine-4-carbonyl)piperazin-1-yl)piperidin-1-yl)-2-methoxyphenyl)amino)pyrimidin-4-yl)amino)phenyl)-N-methylmethanesulfonamide]: in assay [3], the DC50 was 0.00929 µM and the Dmax stood at 85.4%. In addition, in assay [4], half-maximal degradation (DC50) was put at 0.0111 µM and the Dmax stood at 87.2%.

Consider `COc1cc(N2CCC(N3CCN(CCc4ccc(C5CCC(=O)NC5=O)cc4)CC3)CC2)ccc1Nc1ncc(Cl)c(Nc2ccccc2NS(C)(=O)=O)n1` (stereo not shown) [Example 138, N-(2-((5-chloro-2-((4-(4-(4-(4-(2,6-dioxopiperidin-3-yl)phenethyl)piperazin-1-yl)piperidin-1-yl)-2-methoxyphenyl)amino)pyrimidin-4-yl)amino)phenyl)methanesulfonamide], for which, in assay [3], it took 0.00358 µM to reach half-maximal degradation (DC50) and the Dmax is 87%. In assay [4], the DC50 was found to be 0.0151 µM and the Dmax came to 82.2%.

In assay [3], `COc1cc(N2CCC(N3CCN(CCc4ccc(NC5CCC(=O)NC5=O)cc4)CC3)CC2)ccc1Nc1ncc(Cl)c(Nc2ccccc2NS(C)(=O)=O)n1` (stereo not shown) [Example 140, N-(2-((5-chloro-2-((4-(4-(4-(4-((2,6-dioxopiperidin-3-yl)amino)phenethyl)piperazin-1-yl)piperidin-1-yl)-2-methoxyphenyl)amino)pyrimidin-4-yl)amino)phenyl)methanesulfonamide] showed a DC50 of 0.00524 µM and a Dmax of 73.3%. In addition, in assay [4], the DC50 worked out at 0.00856 µM and the Dmax came out at 88.9%.

Turning to `COc1cc(N2CCC(N3CCN(CCCOc4ccc(NC5CCC(=O)NC5=O)cc4)CC3)CC2)ccc1Nc1ncc(Cl)c(Nc2ccccc2NS(C)(=O)=O)n1` (stereo not shown) [Example 143, N-(2-((5-chloro-2-((4-(4-(4-(3-(4-((2,6-dioxopiperidin-3-yl)amino)phenoxy)propyl)piperazin-1-yl)piperidin-1-yl)-2-methoxyphenyl)amino)pyrimidin-4-yl)amino)phenyl) methanesulfonamide], in assay [3], the 50% degradation concentration (DC50) was 0.00543 µM and the maximal degradation (Dmax) turned out to be 56.2%. In assay [4], this molecule gave a DC50 of 0.0121 µM and a Dmax of 73%.

As a reminder, the DC50 is the concentration giving 50% degradation. By Dmax is commonly meant the greatest extent of degradation seen.
